According to US10206394B2, “Herbicidal compounds” (Syngenta Participations AG, priority 2014, dated 2019):
Read-outs that look alike come from different tables or passages of the source.

What was measured:
Experiment in all cases: Glasshouse assay for herbicidal activity (pre- and post-emergence), percentage phytotoxicity
Format in all cases: in vivo
[1] = tested on: Alopecurus myosuroides (ALOMY); conditions: Alopecurus myosuroides
Summary of the method: (§1)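 Herbicide was applied to potted plants sown in standard soil, one day after sowing for PRE and after about 12 days for POST. Visual percentage damage ratings followed at 15 DAA (POST) and 20 DAA (PRE).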

[2] = tested on: Echinochloa crus-galli (ECHCG); conditions: Echinochloa crus-galli
Summary of the method: as §1

Lolium perenne (LOLPE) = conditions: Lolium perenne
Summary of the method: as §1

Avena fatua (AVEFA) = conditions: Avena fatua
Summary of the method: as §1

[3] = post-emergence, 360 h, Rate 250 g/ha, post-emergence, assessed visually 15 DAA, 100%=total damage, 0%=no damage, read-out: Post-emergence herbicidal activity (percentage phytotoxicity) ALOMY POST
[4] = pre-emergence, 480 h, Rate 250 g/ha, pre-emergence, assessed visually 20 DAA, 100%=total damage, 0%=no damage, read-out: Pre-emergence herbicidal activity (percentage phytotoxicity) ALOMY PRE
[5] = post-emergence, 360 h, Rate 250 g/ha, post-emergence, assessed visually 15 DAA, 100%=total damage, 0%=no damage, read-out: Post-emergence herbicidal activity (percentage phytotoxicity) ECHCG POST
[6] = pre-emergence, 480 h, Rate 250 g/ha, pre-emergence, assessed visually 20 DAA, 100%=total damage, 0%=no damage, read-out: Pre-emergence herbicidal activity (percentage phytotoxicity) ECHCG PRE
[7] = post-emergence, 360 h, Rate 250 g/ha, post-emergence, assessed visually 15 DAA, 100%=total damage, 0%=no damage, read-out: Post-emergence herbicidal activity (percentage phytotoxicity) LOLPE POST
[8] = pre-emergence, 480 h, Rate 250 g/ha, pre-emergence, assessed visually 20 DAA, 100%=total damage, 0%=no damage, read-out: Pre-emergence herbicidal activity (percentage phytotoxicity) LOLPE PRE
[9] = post-emergence, 360 h, Rate 250 g/ha, post-emergence, assessed visually 15 DAA, 100%=total damage, 0%=no damage, read-out: Post-emergence herbicidal activity (percentage phytotoxicity) AVEFA POST
[10] = pre-emergence, 480 h, Rate 250 g/ha, pre-emergence, assessed visually 20 DAA, 100%=total damage, 0%=no damage, read-out: Pre-emergence herbicidal activity (percentage phytotoxicity) AVEFA PRE

SMILES	pest or weed control at 250 g/ha [1, 3]	pest or weed control at 250 g/ha [1, 4]	pest or weed control at 250 g/ha [2, 5]	pest or weed control at 250 g/ha [2, 6]	pest or weed control at 250 g/ha (Lolium perenne (LOLPE); [7])	pest or weed control at 250 g/ha (Lolium perenne (LOLPE); [8])	pest or weed control at 250 g/ha (Avena fatua (AVEFA); [9])	pest or weed control at 250 g/ha (Avena fatua (AVEFA); [10])	other results
Cc1cc(-n2cc(Cl)cn2)cc(C)c1C1C(=O)CC(CC(=O)NCC(C)C)C1=O (stereo not drawn) [Compound A72]	90%	90%	90%	100%	80%	90%	90%	90%	
COCC#CC(C)(C)NC(=O)CC1CC(=O)C(c2c(C)cc(-c3ncc(Cl)cc3F)cc2C)C1=O (stereo not drawn) [Compound A112]	90%	80%	100%	100%	100%	100%	100%	90%	
CCc1cc(OCC(F)(F)F)cc(C)c1C1C(=O)CC(CC(=O)NCc2ccc(OC)cc2)C1=O (stereo not drawn) [Compound B215]									pest or weed control at 250 g/ha ([1]; post-emergence, 360 h, POST-emergence, rate 250 g/ha, visual score 15 DAA (100%=total damage, 0%=no damage), read-out: Post-emergence herbicidal activity (percentage phytotoxicity) ALOMY POST): 100%; pest or weed control at 250 g/ha ([1]; pre-emergence, 480 h, PRE-emergence, rate 250 g/ha, visual score 20 DAA (100%=total damage, 0%=no damage), read-out: Pre-emergence herbicidal activity (percentage phytotoxicity) ALOMY PRE): 90%; pest or weed control at 250 g/ha ([2]; post-emergence, 360 h, POST-emergence, rate 250 g/ha, visual score 15 DAA (100%=total damage, 0%=no damage), read-out: Post-emergence herbicidal activity (percentage phytotoxicity) ECHCG POST): 100%; pest or weed control at 250 g/ha ([2]; pre-emergence, 480 h, PRE-emergence, rate 250 g/ha, visual score 20 DAA (100%=total damage, 0%=no damage), read-out: Pre-emergence herbicidal activity (percentage phytotoxicity) ECHCG PRE): 90%; pest or weed control at 250 g/ha (Lolium perenne (LOLPE); post-emergence, 360 h, POST-emergence, rate 250 g/ha, visual score 15 DAA (100%=total damage, 0%=no damage), read-out: Post-emergence herbicidal activity (percentage phytotoxicity) LOLPE POST): 100%; pest or weed control at 250 g/ha (Lolium perenne (LOLPE); pre-emergence, 480 h, PRE-emergence, rate 250 g/ha, visual score 20 DAA (100%=total damage, 0%=no damage), read-out: Pre-emergence herbicidal activity (percentage phytotoxicity) LOLPE PRE): 90%; pest or weed control at 250 g/ha (Avena fatua (AVEFA); post-emergence, 360 h, POST-emergence, rate 250 g/ha, visual score 15 DAA (100%=total damage, 0%=no damage), read-out: Post-emergence herbicidal activity (percentage phytotoxicity) AVEFA POST): 100%; pest or weed control at 250 g/ha (Avena fatua (AVEFA); pre-emergence, 480 h, PRE-emergence, rate 250 g/ha, visual score 20 DAA (100%=total damage, 0%=no damage), read-out: Pre-emergence herbicidal activity (percentage phytotoxicity) AVEFA PRE): 80%
Cc1cc(C)c(C2C(=O)CC(CC(=O)N3CC(C)CC(C)C3)C2=O)c(C)c1 (stereo not drawn) [Compound A173]									pest or weed control at 250 g/ha ([1]; post-emergence, 360 h, post-emergence, 250 g/ha, 15 DAA, visual score (100%=total damage; 0%=no damage), read-out: ALOMY POST herbicidal activity (percentage phytotoxicity)): 20%; pest or weed control at 250 g/ha ([1]; pre-emergence, 480 h, pre-emergence, 250 g/ha, 20 DAA, visual score (100%=total damage; 0%=no damage), read-out: ALOMY PRE herbicidal activity (percentage phytotoxicity)): 50%; pest or weed control at 250 g/ha ([2]; post-emergence, 360 h, post-emergence, 250 g/ha, 15 DAA, visual score (100%=total damage; 0%=no damage), read-out: ECHCG POST herbicidal activity (percentage phytotoxicity)): 30%; pest or weed control at 250 g/ha ([2]; pre-emergence, 480 h, pre-emergence, 250 g/ha, 20 DAA, visual score (100%=total damage; 0%=no damage), read-out: ECHCG PRE herbicidal activity (percentage phytotoxicity)): 10%; pest or weed control at 250 g/ha (Lolium perenne (LOLPE); post-emergence, 360 h, post-emergence, 250 g/ha, 15 DAA, visual score (100%=total damage; 0%=no damage), read-out: LOLPE POST herbicidal activity (percentage phytotoxicity)): 60%; pest or weed control at 250 g/ha (Lolium perenne (LOLPE); pre-emergence, 480 h, pre-emergence, 250 g/ha, 20 DAA, visual score (100%=total damage; 0%=no damage), read-out: LOLPE PRE herbicidal activity (percentage phytotoxicity)): 80%; pest or weed control at 250 g/ha (Avena fatua (AVEFA); post-emergence, 360 h, post-emergence, 250 g/ha, 15 DAA, visual score (100%=total damage; 0%=no damage), read-out: AVEFA POST herbicidal activity (percentage phytotoxicity)): 30%; pest or weed control at 250 g/ha (Avena fatua (AVEFA); pre-emergence, 480 h, pre-emergence, 250 g/ha, 20 DAA, visual score (100%=total damage; 0%=no damage), read-out: AVEFA PRE herbicidal activity (percentage phytotoxicity)): 10%
C#CCCNC(=O)CC1CC(=O)C(c2c(C)cc(C)cc2C)C1=O (stereo not drawn) [Compound B37]									pest or weed control at 250 g/ha ([1]; post-emergence, 360 h, 250 g/ha, post-emergence, 15 DAA, visual assessment (100%=total damage, 0%=no damage), read-out: Post-emergence herbicidal activity (percentage phytotoxicity) ALOMY POST): 70%; pest or weed control at 250 g/ha ([1]; pre-emergence, 480 h, 250 g/ha, pre-emergence, 20 DAA, visual assessment (100%=total damage, 0%=no damage), read-out: Pre-emergence herbicidal activity (percentage phytotoxicity) ALOMY PRE): 70%; pest or weed control at 250 g/ha ([2]; post-emergence, 360 h, 250 g/ha, post-emergence, 15 DAA, visual assessment (100%=total damage, 0%=no damage), read-out: Post-emergence herbicidal activity (percentage phytotoxicity) ECHCG POST): 90%; pest or weed control at 250 g/ha ([2]; pre-emergence, 480 h, 250 g/ha, pre-emergence, 20 DAA, visual assessment (100%=total damage, 0%=no damage), read-out: Pre-emergence herbicidal activity (percentage phytotoxicity) ECHCG PRE): 90%; pest or weed control at 250 g/ha (Lolium perenne (LOLPE); post-emergence, 360 h, 250 g/ha, post-emergence, 15 DAA, visual assessment (100%=total damage, 0%=no damage), read-out: Post-emergence herbicidal activity (percentage phytotoxicity) LOLPE POST): 80%; pest or weed control at 250 g/ha (Lolium perenne (LOLPE); pre-emergence, 480 h, 250 g/ha, pre-emergence, 20 DAA, visual assessment (100%=total damage, 0%=no damage), read-out: Pre-emergence herbicidal activity (percentage phytotoxicity) LOLPE PRE): 100%; pest or weed control at 250 g/ha (Avena fatua (AVEFA); post-emergence, 360 h, 250 g/ha, post-emergence, 15 DAA, visual assessment (100%=total damage, 0%=no damage), read-out: Post-emergence herbicidal activity (percentage phytotoxicity) AVEFA POST): 100%; pest or weed control at 250 g/ha (Avena fatua (AVEFA); pre-emergence, 480 h, 250 g/ha, pre-emergence, 20 DAA, visual assessment (100%=total damage, 0%=no damage), read-out: Pre-emergence herbicidal activity (percentage phytotoxicity) AVEFA PRE): 90%
Cc1cc(C)c(C2C(=O)CC(CC(=O)N3CCSCC3)C2=O)c(C)c1 (stereo not drawn) [Compound A163]	30%	10%	70%	70%	60%	60%	30%	30%	
